Like-named read-outs stand apart in the source and are kept apart here.
Tests used:
[1] = test system: JAK1 (IL-13-stimulated STAT6 phosphorylation in BEAS-2B cells); experiment: P-STAT6 BEAS-2B+IL-13 cell assay; type: cell-based, human; conditions: 1 hour compound, IL-13 15 minutes, IC50 by four-parameter fit, read-out: Cellular JAK1 PSTAT6 BEAS2B + IL13
Method: In order to study the effect of JAK1 inhibitors in a cell line that is relevant to the cell biology of human asthma, an IL-13-stimulated STAT6 phosphorylation assay in the human lung bronchial epithelial BEAS-2B cell line was developed.
BEAS-2B cells (ATCC® CRL-9609™) were grown in Bronchial Epithelial Growth Medium (BEGM) (Lonza Catalog No. CC-3170; Walkersville, MD; or PromoCell Catalog No. C-21060; Heidelberg, Germany). Test compound stock solutions (0.5 mM in DMSO) were serially diluted 1:2 in DMSO to generate a 10-point concentration curve (at 500× test concentration), which was further diluted by a 50-fold dilution step in BEGM to generate a 10× concentration curve (in 2% DMSO). Cells were plated at 100,000 cells/well in 200 μL of BEGM in 96-well plates and incubated for 48 hours at 37° C. in a humidified incubator. Medium was aspirated from the cells and replaced with 70 μL of fresh BEGM. Diluted test compound (10 μL; or 2% DMSO in assay medium) was added to the cells, and the plates were incubated for 1 hour at 37° C. in a humidified incubator. Twenty μL of 250 ng/mL human recombinant IL-13 (Bio Techne Catalog No. 213-ILB) was then added to the cells and incubated for 15 minutes at 37° C. Medium was aspirated from the cells and 60 μL of ice-cold 1×cell lysis buffer (Cell Signaling Technologies; Catalog No. 9803S) containing 1 mM PMSF was added to the cells. Assay plates were incubated at −80° C. for at least 1 hour. P-STAT6 was measured by coating GAR plates (MSD; Catalog No. L45RA-1) with rabbit anti-human total STAT6 antibody (Cell Signaling Technologies; Catalog No. 9362S), incubating the cell lysates in the coated plates overnight at 4° C., and then detecting with mouse anti-phospho-STAT6 (Tyr641) Clone 16E12 antibody (Millipore; Catalog No. 05-590, custom labeled by MSD with SULFO-tag) using standard MSD plate processing, washing, and detection protocols. Plates were read on the MESO SECTOR S600.
Data analysis was performed by subtracting negative control values from all wells and determining percent of control using the positive control values; the IC50 was determined with a four-parameter logistic fit model as shown in Equation 4.

[2] = biological target: T1, Recombinant human JAK2 kinase domain protein (Residues 812-1132) (Homo sapiens, UniProt O60674); experiment: JAK2 biochemical assay (microfluidic mobility shift, peptide phosphorylation); conditions: 25 μM ATP, 0.2 nM total JAK2; Ki calculated from Ki app (tight-binding, competitive); read-out: Biochem JAK2 Ki
T1 construct: human JAK2 kinase domain protein (Residues 812-1132); made in house; host or cells: insect cells
Method: (§1) The in vitro biochemical assays quantify JAK-catalyzed phosphorylation of a synthetic peptide, as detected using a LabChip® EZ Reader II microfluidic mobility shift instrument (PerkinElmer; Waltham, MA). The substrate peptide Y-1B has the sequence 5-FAM-VALVDGYFRLTT-NH2. Y-1B is fluorescently labeled on the N-terminus with 5-FAM (5-carboxyfluorescein) and contains a single tyrosine residue (Y) that can be phosphorylated by JAK activity. The substrate peptide stock is prepared in DMSO at 5 mM. Purified recombinant human JAK1 kinase domain protein (Residues 854-1154) was expressed in insect cells and procured from Proteros Biostructures GmbH (Martinsried, Germany). Recombinant human JAK2 kinase domain protein (Residues 812-1132) was expressed in insect cells and purified at Genentech, Inc. (South San Francisco, CA).
(§2) The kinase reaction mixtures contained 100 mM 4-(2-hydroxyethyl)-1-piperazineethanesulfonic acid (HEPES) buffer (pH 7.2), 10 mM magnesium chloride, 0.015% Brij® 35, 4 mM dithiothreitol, 1.5 μM Y-1B peptide substrate, 25 μM adenosine triphosphate (ATP), 1 nM total JAK1 or 0.2 nM total JAK2, and up to 1000 nM test compound in a final concentration of 2% (volume to volume [v/v]) DMSO. In each titration experiment, test compound was tested in duplicate at each of the twelve concentrations. Blank reactions contained ATP, peptide, and DMSO, but no JAK or test compound, whereas uninhibited control reactions contained ATP, peptide, JAK, and DMSO, but no test compound.
(§3) Peptide plus ATP mixture (24 μL) was added to 1 μL of test compound in DMSO (or DMSO alone). The reactions were initiated by adding 25 μL of JAK enzyme to the inhibitor/peptide/ATP mixture before thoroughly mixing the resultant solution. Reactions were incubated at room temperature (22° C.-23° C.) in a final volume of 50 μL per well in 384-well plates. After a 30-minute incubation, the reactions were stopped by adding 25 μL of 150 mM ethylenediaminetetraacetic acid in 100 mM HEPES buffer (pH 7.2) containing 0.015% Brij 35 to each well.
(§4) In each reaction, the residual Y-1B substrate and the phospho-peptide product generated were separated using the EZ Reader 1 instrument. Electrophoretic separation of molecules of product from molecules of substrate was achieved using downstream and upstream voltages of −500 and −2600 V, respectively, at an operating pressure of −1.3 psi. The 5-FAM group present on both the substrate and product peptides was excited at 488 nm, the fluorescence was detected at 530 nm, and the peak heights were reported.
(§5) The extent (or percent) of conversion of substrate to product was calculated from the corresponding peak heights in the electropherogram using HTS Well Analyzer software, Version 5.2 (PerkinElmer), and the following equation (Equation 1): % conversion=[P[…](S+P)]×100 Equation 1 where S and P represent the peak heights of the substrate and product, respectively. After any baseline signal from blank wells containing no JAK was subtracted from the signal of all test wells, the % conversion data were converted to fractional activity as shown in Equation 2, where νi and νo are the % conversion in the presence and absence of test compound, respectively. The % conversion observed in the uninhibited control reactions containing JAK and DMSO vehicle, but no test compound, was defined to have fractional activity=1 (with no inhibitor present, νi=νo), whereas blank wells with no JAK were defined as having fractional activity=0. Fractional activity was plotted against test compound concentration and the data were fitted using XLfit software (IDBS; Guildford, United Kingdom) to a tight-binding apparent inhibition constant (Ki^app) quadratic equation (see Equation 2) (Williams J W, Morrison J F. The kinetics of reversible tight-binding inhibition. Methods Enymol 1979; 63:437-67), which was used to calculate fractional activity and Ki^app […]

[3] = biological target: T2, recombinant human JAK1 kinase domain protein (Residues 854-1154) (Homo sapiens, UniProt P23458); experiment: JAK1 biochemical assay (microfluidic mobility shift, peptide phosphorylation); conditions: 25 μM ATP, 1 nM total JAK1; Ki calculated from Ki app (tight-binding, competitive); read-out: Biochem JAK1 Ki
T2 construct: human JAK1 kinase domain protein (Residues 854-1154); purchased Proteros Biostructures GmbH (Martinsried, Germany); host or cells: insect cells
Method: as §1, §2, §3, §4, §5

T2 sequence (P23458 854-1154): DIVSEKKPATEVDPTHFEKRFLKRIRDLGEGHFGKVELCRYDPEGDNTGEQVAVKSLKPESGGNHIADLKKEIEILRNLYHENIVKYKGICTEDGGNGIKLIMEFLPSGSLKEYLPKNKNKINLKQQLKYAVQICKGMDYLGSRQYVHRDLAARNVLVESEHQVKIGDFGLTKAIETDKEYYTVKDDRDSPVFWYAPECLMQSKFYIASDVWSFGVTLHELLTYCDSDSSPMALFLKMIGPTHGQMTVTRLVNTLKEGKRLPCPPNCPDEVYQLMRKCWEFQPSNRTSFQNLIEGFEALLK
T1 sequence (O60674 812-1132): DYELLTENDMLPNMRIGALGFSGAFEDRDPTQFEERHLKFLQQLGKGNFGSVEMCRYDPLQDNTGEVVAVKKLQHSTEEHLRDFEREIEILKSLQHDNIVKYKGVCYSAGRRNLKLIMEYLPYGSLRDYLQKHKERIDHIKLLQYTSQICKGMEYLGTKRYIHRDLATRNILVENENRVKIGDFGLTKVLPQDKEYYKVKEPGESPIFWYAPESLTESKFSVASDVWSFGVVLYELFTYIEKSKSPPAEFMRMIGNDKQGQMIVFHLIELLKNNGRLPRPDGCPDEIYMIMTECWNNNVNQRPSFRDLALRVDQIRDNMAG

Row | Ki [2] | Ki [3] | Compound | IC50 [1] | IC50 ([1]; Homo sapiens, BEAS-2B, 1 h) | IC50 ([1]; formic acid)
1 | 1.9 nM | 2.4 nM | CN(C)C1CCC(N2CC(n3nnc(Cn4cc(NC(=O)c5cnn6cccnc56)c(-c5cc(OC(F)F)ccc5OC(F)F)n4)n3)C2)C1 (single isomer, unassigned) [Example 76, N-[3-[2,5-bis(difluoromethoxy)phenyl]-1-[[2-[1-[3-(dimethylamino)cyclopentyl]azetidin-3-yl]tetrazol-5-yl]methyl]pyrazol-4-yl]pyrazolo[1,5-a]pyrimidine-3-carboxamide] | 74 nM |  | 
2 | 0.47 nM | 0.52 nM | CN(C)CCN(C)C1CC(n2nnc(Cn3cc(NC(=O)c4cnn5cccnc45)c(-c4cc(OC(F)F)ccc4OC(F)F)n3)n2)C1 (single isomer, unassigned) [Example 81, N-[3-[2,5-bis(difluoromethoxy)phenyl]-1-[[2-[3-[2-(dimethylamino)ethyl-methyl-amino]cyclobutyl]tetrazol-5-yl]methyl]pyrazol-4-yl]pyrazolo[1,5-a]pyrimidine-3-carboxamide; formic acid] |  | 29 nM | 
3 | 0.47 nM | 0.54 nM | CN(C)CCN(C)C1CC(n2nnc(Cn3cc(NC(=O)c4cnn5cccnc45)c(-c4cc(OC(F)F)ccc4OC(F)F)n3)n2)C1 (single isomer, unassigned) [Example 82, N-[3-[2,5-bis(difluoromethoxy)phenyl]-1-[[2-[3-[2-(dimethylamino)ethyl-methyl-amino]cyclobutyl]tetrazol-5-yl]methyl]pyrazol-4-yl]pyrazolo[1,5-a]pyrimidine-3-carboxamide; formic acid] |  |  | 32 nM
4 | 0.39 nM | 0.43 nM | CN(C)CC(F)CN1CC(n2nnc(Cn3cc(NC(=O)c4cnn5cccnc45)c(-c4cc(OC(F)F)ccc4OC(F)F)n3)n2)C1 (single isomer, unassigned) [Example 83, N-[3-[2,5-bis(difluoromethoxy)phenyl]-1-[[2-[1-[3-(dimethylamino)-2-fluoro-propyl]azetidin-3-yl]tetrazol-5-yl]methyl]pyrazol-4-yl]pyrazolo[1,5-a]pyrimidine-3-carboxamide] |  | 17 nM | 
5 | 0.5 nM | 0.55 nM | CN(C)CC(F)CN1CC(n2nnc(Cn3cc(NC(=O)c4cnn5cccnc45)c(-c4cc(OC(F)F)ccc4OC(F)F)n3)n2)C1 (single isomer, unassigned) [Example 84, N-[3-[2,5-bis(difluoromethoxy)phenyl]-1-[[2-[1-[3-(dimethylamino)-2-fluoro-propyl]azetidin-3-yl]tetrazol-5-yl]methyl]pyrazol-4-yl]pyrazolo[1,5-a]pyrimidine-3-carboxamide] | 20 nM |  | 
6 | 0.41 nM | 0.53 nM | CN1CCC[C@@H]1Cn1nnc(Cn2cc(NC(=O)c3cnn4cccnc34)c(-c3cc(OC(F)F)ccc3OC(F)F)n2)n1 (stereo in doubt) [Example 49, N-[3-[2,5-bis(difluoromethoxy)phenyl]-1-[[2-[[rac-(2R)-1-methylpyrrolidin-2-yl]methyl]tetrazol-5-yl]methyl]pyrazol-4-yl]pyrazolo[1,5-a]pyrimidine-3-carboxamide] |  | 19 nM | 
7 | 0.32 nM | 0.48 nM | CN1CCC[C@H]1Cn1nnc(Cn2cc(NC(=O)c3cnn4cccnc34)c(-c3cc(OC(F)F)ccc3OC(F)F)n2)n1 (stereo in doubt) [Example 53, N-[3-[2,5-bis(difluoromethoxy)phenyl]-1-[[2-[[rac-(2S)-1-methylpyrrolidin-2-yl]methyl]tetrazol-5-yl]methyl]pyrazol-4-yl]pyrazolo[1,5-a]pyrimidine-3-carboxamide] |  | 35 nM | 
8 | 0.089 nM | 0.15 nM | O=C(Nc1cn(Cc2nnn(CCO)n2)nc1-c1cc(Cl)ccc1OC(F)F)c1cnn2cccnc12 [Example 1, N-[3-[5-chloro-2-(difluoromethoxy)phenyl]-1-[[2-(2-hydroxyethyl)tetrazol-5-yl]methyl]pyrazol-4-yl]pyrazolo[1,5-a]pyrimidine-3-carboxamide] |  | 6.7 nM | 
9 | 0.29 nM | 0.54 nM | O=C(Nc1cn(Cc2nnn(CCN3CCOCC3)n2)nc1-c1cc(Cl)ccc1OC(F)F)c1cnn2cccnc12 [Example 2, N-[3-[5-chloro-2-(difluoromethoxy)phenyl]-1-[[2-(2-morpholinoethyl)tetrazol-5-yl]methyl]pyrazol-4-yl]pyrazolo[1,5-a]pyrimidine-3-carboxamide] |  | 14 nM | 
10 | 0.43 nM | 0.58 nM | CN1CCC(n2nnc(Cn3cc(NC(=O)c4cnn5cccnc45)c(-c4cc(Cl)ccc4OC(F)F)n3)n2)CC1 [Example 3, N-[3-[5-chloro-2-(difluoromethoxy)phenyl]-1-[[2-(1-methyl-4-piperidyl)tetrazol-5-yl]methyl]pyrazol-4-yl]pyrazolo[1,5-a]pyrimidine-3-carboxamide] |  | 14 nM | 
11 | 0.12 nM | 0.23 nM | O=C(Nc1cn(Cc2nnn(C3COC3)n2)nc1-c1cc(Cl)ccc1OC(F)F)c1cnn2cccnc12 [Example 4, N-[3-[5-chloro-2-(difluoromethoxy)phenyl]-1-[[2-(oxetan-3-yl)tetrazol-5-yl]methyl]pyrazol-4-yl]pyrazolo[1,5-a]pyrimidine-3-carboxamide] |  | 6.8 nM | 

— patent publication US12247032B2, “Substituted pyrazolo[1,5-a]pyrimidines as inhibitors of JAK kinases” (Genentech, Inc., priority 2019, dated 2025)
